# According to patent US20160367623A1, “AGONISTS OF GUANYLATE CYCLASE USEFUL FOR THE TREATMENT OF GASTROINTESTINAL DISORDERS, INFLAMMATION, CANCER AND OTHER DISORDERS” (priority 2015, published 2016):
# Bridge positions count the residues as written; N and C are the ends. Ends that are not written are not given here.
# Tested on: patients with chronic idiopathic constipation (CIC)
# Assay: Second phase 3 CIC trial: change from baseline in stool consistency (BSFS)
# Format: in vivo, human
# [1] = 3 mg, Week 7, All Randomized (includes Duplicate Patients)
# [2] = 3 mg, Week 7, ITT Population-Excluding Duplicate Patients
# [3] = 3 mg, Week 8, All Randomized (includes Duplicate Patients)
# [4] = 3 mg, Week 8, ITT Population-Excluding Duplicate Patients
# [5] = 3 mg, Week 9, All Randomized (includes Duplicate Patients)
# [6] = 3 mg, Week 9, ITT Population-Excluding Duplicate Patients
# [7] = 3 mg, Week 10, All Randomized (includes Duplicate Patients)
# [8] = 3 mg, Week 10, ITT Population-Excluding Duplicate Patients
# [9] = 3 mg, Week 11, All Randomized (includes Duplicate Patients)
# [10] = 3 mg, Week 11, ITT Population-Excluding Duplicate Patients
# [11] = 3 mg, Week 12, All Randomized (includes Duplicate Patients)
# [12] = 3 mg, Week 12, ITT Population-Excluding Duplicate Patients
# [13] = 3 mg, overall average estimate across the 12-week treatment period, All Randomized (includes Duplicate Patients)
# [14] = 3 mg, overall average estimate across the 12-week treatment period, ITT Population
# [15] = 3 mg, overall average estimate across the 12-week treatment period, ITT Population-Excluding Duplicate Patients
# [16] = 6 mg, Post-Treatment Week 13, All Randomized (includes Duplicate Patients)
# [17] = 6 mg, Post-Treatment Week 13, ITT Population
# [18] = 6 mg, Post-Treatment Week 13, ITT Population-Excluding Duplicate Patients
# [19] = 6 mg, Post-Treatment Week 14, All Randomized (includes Duplicate Patients)
# [20] = 6 mg, Post-Treatment Week 14, ITT Population
substance,measurement,setting,value
"Asn^1-Asp^2-Glu^3-Cys^4-Glu^5-Leu^6-Cys^7-Val^8-Asn^9-Val^10-Ala^11-Cys^12-Thr^13-Gly^14-Cys^15-Leu^16 (NDECELCVNVACTGCL; disulfide 4-12, 7-15) [Plecanatide, uroguanylin analogue, guanylate cyclase-C agonist; (C4:C12, C7:C15) bicycle peptide]","Change from Baseline in Stool Consistency, Difference from Placebo",[1],0.60
same,"Change from Baseline in Stool Consistency, LS Mean (SE)",[1],1.46 (0.072)
same,"Change from Baseline in Stool Consistency, Difference from Placebo","3 mg, Week 7, ITT Population",0.60
same,"Change from Baseline in Stool Consistency, LS Mean (SE)","3 mg, Week 7, ITT Population",1.49 (0.074)
same,"Change from Baseline in Stool Consistency, Mean (SD)","3 mg, Week 7, ITT Population",1.58 (1.447)
same,"Change from Baseline in Stool Consistency, Difference from Placebo",[2],0.61
same,"Change from Baseline in Stool Consistency, LS Mean (SE)",[2],1.50 (0.075)
same,"Change from Baseline in Stool Consistency, Mean (SD)",[2],1.60 (1.452)
same,"Change from Baseline in Stool Consistency, Difference from Placebo",[3],0.67
same,"Change from Baseline in Stool Consistency, LS Mean (SE)",[3],1.58 (0.072)
same,"Change from Baseline in Stool Consistency, Difference from Placebo","3 mg, Week 8, ITT Population",0.66
same,"Change from Baseline in Stool Consistency, LS Mean (SE)","3 mg, Week 8, ITT Population",1.60 (0.075)
same,"Change from Baseline in Stool Consistency, Mean (SD)","3 mg, Week 8, ITT Population",1.71 (1.496)
same,"Change from Baseline in Stool Consistency, Difference from Placebo",[4],0.67
same,"Change from Baseline in Stool Consistency, LS Mean (SE)",[4],1.60 (0.075)
same,"Change from Baseline in Stool Consistency, Mean (SD)",[4],1.71 (1.500)
same,"Change from Baseline in Stool Consistency, Difference from Placebo",[5],0.68
same,"Change from Baseline in Stool Consistency, LS Mean (SE)",[5],1.55 (0.073)
same,"Change from Baseline in Stool Consistency, Difference from Placebo","3 mg, Week 9, ITT Population",0.68
same,"Change from Baseline in Stool Consistency, LS Mean (SE)","3 mg, Week 9, ITT Population",1.57 (0.075)
same,"Change from Baseline in Stool Consistency, Mean (SD)","3 mg, Week 9, ITT Population",1.68 (1.468)
same,"Change from Baseline in Stool Consistency, Difference from Placebo",[6],0.66
same,"Change from Baseline in Stool Consistency, LS Mean (SE)",[6],1.57 (0.076)
same,"Change from Baseline in Stool Consistency, Mean (SD)",[6],1.68 (1.468)
same,"Change from Baseline in Stool Consistency, Difference from Placebo",[7],0.62
same,"Change from Baseline in Stool Consistency, LS Mean (SE)",[7],1.52 (0.073)
same,"Change from Baseline in Stool Consistency, Difference from Placebo","3 mg, Week 10, ITT Population",0.61
same,"Change from Baseline in Stool Consistency, LS Mean (SE)","3 mg, Week 10, ITT Population",1.54 (0.075)
same,"Change from Baseline in Stool Consistency, Mean (SD)","3 mg, Week 10, ITT Population",1.65 (1.539)
same,"Change from Baseline in Stool Consistency, Difference from Placebo",[8],0.61
same,"Change from Baseline in Stool Consistency, LS Mean (SE)",[8],1.54 (0.076)
same,"Change from Baseline in Stool Consistency, Mean (SD)",[8],1.65 (1.548)
same,"Change from Baseline in Stool Consistency, Difference from Placebo",[9],0.55
same,"Change from Baseline in Stool Consistency, LS Mean (SE)",[9],1.48 (0.073)
same,"Change from Baseline in Stool Consistency, Difference from Placebo","3 mg, Week 11, ITT Population",0.54
same,"Change from Baseline in Stool Consistency, LS Mean (SE)","3 mg, Week 11, ITT Population",1.50 (0.075)
same,"Change from Baseline in Stool Consistency, Mean (SD)","3 mg, Week 11, ITT Population",1.58 (1.598)
same,"Change from Baseline in Stool Consistency, Difference from Placebo",[10],0.54
same,"Change from Baseline in Stool Consistency, LS Mean (SE)",[10],1.51 (0.076)
same,"Change from Baseline in Stool Consistency, Mean (SD)",[10],1.59 (1.595)
same,"Change from Baseline in Stool Consistency, Difference from Placebo",[11],0.57
same,"Change from Baseline in Stool Consistency, LS Mean (SE)",[11],1.57 (0.073)
same,"Change from Baseline in Stool Consistency, Difference from Placebo","3 mg, Week 12, ITT Population",0.58
same,"Change from Baseline in Stool Consistency, LS Mean (SE)","3 mg, Week 12, ITT Population",1.60 (0.075)
same,"Change from Baseline in Stool Consistency, Mean (SD)","3 mg, Week 12, ITT Population",1.69 (1.480)
same,"Change from Baseline in Stool Consistency, Difference from Placebo",[12],0.58
same,"Change from Baseline in Stool Consistency, LS Mean (SE)",[12],1.61 (0.076)
same,"Change from Baseline in Stool Consistency, Mean (SD)",[12],1.70 (1.476)
same,"Change from Baseline in Stool Consistency, Difference from Placebo",[13],0.63
same,"Change from Baseline in Stool Consistency, LS Mean (SE)",[13],1.48 (0.058)
same,"Change from Baseline in Stool Consistency, Difference from Placebo",[14],0.62
same,"Change from Baseline in Stool Consistency, LS Mean (SE)",[14],1.49 (0.060)
same,"Change from Baseline in Stool Consistency, Difference from Placebo",[15],0.62
same,"Change from Baseline in Stool Consistency, LS Mean (SE)",[15],1.50 (0.061)
same,"Change from Baseline in Stool Consistency, Difference from Placebo",[16],0.09
same,"Change from Baseline in Stool Consistency, LS Mean (SE)",[16],1.08 (0.070)
same,"Change from Baseline in Stool Consistency, Mean (SD)",[16],1.03 (1.408)
same,"Change from Baseline in Stool Consistency, Difference from Placebo",[17],0.09
same,"Change from Baseline in Stool Consistency, LS Mean (SE)",[17],1.08 (0.071)
same,"Change from Baseline in Stool Consistency, Mean (SD)",[17],1.04 (1.410)
same,"Change from Baseline in Stool Consistency, Difference from Placebo",[18],0.09
same,"Change from Baseline in Stool Consistency, LS Mean (SE)",[18],1.08 (0.072)
same,"Change from Baseline in Stool Consistency, Mean (SD)",[18],1.04 (1.414)
same,"Change from Baseline in Stool Consistency, Difference from Placebo",[19],0.07
same,"Change from Baseline in Stool Consistency, LS Mean (SE)",[19],1.06 (0.072)
same,"Change from Baseline in Stool Consistency, Mean (SD)",[19],1.04 (1.393)
same,"Change from Baseline in Stool Consistency, Difference from Placebo",[20],0.06
same,"Change from Baseline in Stool Consistency, LS Mean (SE)",[20],1.07 (0.074)
same,"Change from Baseline in Stool Consistency, Mean (SD)",[20],1.06 (1.354)
same,"Change from Baseline in Stool Consistency, Difference from Placebo","6 mg, Post-Treatment Week 14, ITT Population-Excluding Duplicate Patients",0.06
